Values of other authors, collected in patent publication US6963011B2, “N-(2-phenyl-3-aminopropyl)naphthamides” (Astrazeneca AB, priority 2000, dated 2005).
Like-named read-outs stand apart in the source and are kept apart here. Non-standard residues stand in square brackets, D forms with d. Residues, ends and D or L forms follow the SMILES beside them. *: point of attachment. Cyclohexanecarbonyl = O=C(C1CCCCC1)*

Tests used:
[1] = not given; remark: listed apart in the source
[2] = Vassout et al., Neuropeptides 26/S1:38, 1994; only at 30 mg/kg bid
[3] = not given; remark: listed apart in the source
[4] = Walsh et al., Psychopharmacology 121:186-191, 1995
[5] = Vassout et al., Neuropeptides 26/S1:38, 1994
[6] = Teixeira et al., Eur J Pharmacol 311(1):7-14, 1996
[7] = Stratton et al., Eur. J. Pharmacol. 250:R11-12, 1993
[8] = Walsh et al., Psychopharmacology 121:186-191, 1995

Row | Structure (SMILES) | Outcome, Elevated plus-maze [6] | Outcome, Light-dark box [3, 7] | Outcome, Light-dark box [3, 8] | Outcome, Marmoset human intruder [4] | other results
1 | Cc1cc(C)cc(C(=O)N2CC[C@H](NCc3ccnc4ccccc34)C[C@H]2Cc2ccccc2)c1 [CGP 49823] |  |  |  |  | Outcome, Elevated plus-maze [5]: inactive; Outcome, Social interaction ([1]; File, Pharm Bio B 58(3):747-752, 1997): anxiolytic; Outcome, Social interaction test [1, 5]: anxiolytic; Outcome, Forced swim test (depression model) [2]: antidepressant
2 | CN(Cc1ccccc1)C(=O)[C@H](Cc1ccc2ccccc2c1)NC(=O)[C@@H]1C[C@@H](O)CN1C(=O)c1cn(C)c2ccccc12 [FK888] | anxiolytic |  |  |  | 
3 | C[C@H](NC(=O)CNC(=O)C1CCCCC1)C(=O)N[C@H](Cc1c[nH]c2ccccc12)C(=O)N[C@@H](Cc1ccccc1)C(=O)N(C)C [GR100679] (Cyclohexanecarbonyl-GA[dW]F-NMe2) |  | anxiolytic |  |  | 
4 | COC1(C[S@@+]([O-])c2ccccc2)CCN(CCc2c[nH]c3ccc(F)cc23)CC1 [GR159897] |  |  | anxiolytic | anxiolytic | 
5 | CC(=O)NC1(c2ccccc2)CCN(CC[C@H](CN(C)C(=O)c2ccccc2)c2ccc(Cl)c(Cl)c2)CC1 [SR48968] | anxiolytic | anxiolytic | anxiolytic | anxiolytic | 
